This passage reports IC50 results from ChEMBL document CHEMBL4024768, “Discovery and Optimization of Thiazolidinyl and Pyrrolidinyl Derivatives as Inhaled PDE4 Inhibitors for Respiratory Diseases” (J Med Chem, 2017).

One experiment can be described thus: Inhibition of PDE4 in human PBMC assessed as reduction in LPS-induced TNFalpha release after 18 hrs by quantitative ELISA.
On to `CN(C)C(=O)c1cccc(C(=O)N2CCS[C@H]2C(=O)O[C@@H](Cc2c(Cl)c[n+]([O-])cc2Cl)c2ccc(OC(F)F)c(OCC3CC3)c2)c1`, for which the IC50 is 570 pM. Consider `O=C(O[C@@H](Cc1c(Cl)c[n+]([O-])cc1Cl)c1ccc(OC(F)F)c(OCC2CC2)c1)[C@H]1CCCN1S(=O)(=O)c1ccccc1`, for which the half-maximal inhibitory concentration (IC50) was found to be 340 pM. As for `COCCS(=O)(=O)N1CCS[C@H]1C(=O)O[C@@H](Cc1c(Cl)c[n+]([O-])cc1Cl)c1ccc(OC(F)F)c(OCC2CC2)c1` (relative stereo), the IC50 stood at 78 pM. In the case of `CN(C)C(=O)c1cccc(S(=O)(=O)N2CCS[C@H]2C(=O)O[C@@H](Cc2c(Cl)c[n+]([O-])cc2Cl)c2ccc(OC(F)F)c(OC3CCCC3)c2)c1` (relative stereo), the half-maximal inhibitory concentration (IC50) worked out at 40 pM. As for `COc1ccc(S(=O)(=O)N2CCC[C@H]2C(=O)O[C@@H](Cc2c(Cl)c[n+]([O-])cc2Cl)c2ccc(OC(F)F)c(OCC3CC3)c2)cc1OC` (relative stereo), the IC50 worked out at 360 pM. For `CN(C)C(=O)c1cccc(S(=O)(=O)N2CCC[C@@H](C(=O)O[C@@H](Cc3c(Cl)c[n+]([O-])cc3Cl)c3ccc(OC(F)F)c(OCC4CC4)c3)C2)c1` (relative stereo), the IC50 stood at 120 pM. For `Cc1cc(S(=O)(=O)N2CCS[C@H]2C(=O)O[C@@H](Cc2c(Cl)c[n+]([O-])cc2Cl)c2ccc(OC(F)F)c(OCC3CC3)c2)c(C)s1` (relative stereo), the IC50 was 170 pM. For the compound `O=C(O[C@@H](Cc1c(Cl)c[n+]([O-])cc1Cl)c1ccc(OC(F)F)c(OCC2CC2)c1)[C@@H]1SCCN1S(=O)(=O)c1ccccc1` (relative stereo), the IC50 worked out at 260 pM.

The next experiment in a line: Inhibition of PDE4 in human U937 cell lysates assessed as residual cAMP after 2.5 mins by LANCE assay. A general note: TR-FRET usually uses a lanthanide donor and a delayed reading to cut background.
Consider `O=C(O[C@@H](Cc1c(Cl)c[n+]([O-])cc1Cl)c1ccc(OC(F)F)c(OCC2CC2)c1)[C@H]1CCCN1S(=O)(=O)c1ccccc1`, for which the half-maximal inhibitory concentration (IC50) came to 60 pM.

As for `COCCS(=O)(=O)N1CCS[C@H]1C(=O)O[C@@H](Cc1c(Cl)c[n+]([O-])cc1Cl)c1ccc(OC(F)F)c(OCC2CC2)c1` (relative stereo), the IC50 came out at 43 pM. Same read-out and setting: the value for `CN(C)C(=O)c1cccc(S(=O)(=O)N2CCS[C@H]2C(=O)O[C@@H](Cc2c(Cl)c[n+]([O-])cc2Cl)c2ccc(OC(F)F)c(OC3CCCC3)c2)c1` (relative stereo) was 21 pM; that for `COc1ccc(S(=O)(=O)N2CCC[C@H]2C(=O)O[C@@H](Cc2c(Cl)c[n+]([O-])cc2Cl)c2ccc(OC(F)F)c(OCC3CC3)c2)cc1OC` (relative stereo) was 32.4 pM. Turning to `CN(C)C(=O)c1cccc(S(=O)(=O)N2CCC[C@@H](C(=O)O[C@@H](Cc3c(Cl)c[n+]([O-])cc3Cl)c3ccc(OC(F)F)c(OCC4CC4)c3)C2)c1` (relative stereo), the IC50 was 31 pM. As for `Cc1cc(S(=O)(=O)N2CCS[C@H]2C(=O)O[C@@H](Cc2c(Cl)c[n+]([O-])cc2Cl)c2ccc(OC(F)F)c(OCC3CC3)c2)c(C)s1` (relative stereo), the IC50 was determined as 176 pM. Still for that read-out and setting: the value for `O=C(O[C@@H](Cc1c(Cl)c[n+]([O-])cc1Cl)c1ccc(OC(F)F)c(OCC2CC2)c1)[C@@H]1SCCN1S(=O)(=O)c1ccccc1` (relative stereo) was 176 pM.

Usually IC50 stands for the midpoint of a concentration-inhibition curve.
